Measured values as given in paper doi:10.1101/2025.07.20.665728 (bioRxiv, 2025).
Several values for one entry are separate records, joined by “and”; a condition that tells them apart may be missing. Equal entries are not always repeated. Where two headings read alike, the source gives them in different places.

Key:
hMR1 protein = molecular target: T1, hMR1 protein (Homo sapiens, UniProt Q95460); assay: Fluorescence polarization (FP)-based cell-free MR1 binding assay (competition with JYM20)
T1 construct: plasmids encoding for the extracellular domains of MR1, β2m, and the AF-7 TCRα and TCRβ chains; made in house

C1R.MR1^K43A cells = assay: Cell surface MR1 K43A quantification, C1R.MR1^K43A; type: cell-based
Source text: We then tested the effect of the RF catabolites on the expression of two mutant versions of MR1 termed MR1^R9H ([Howson et al., 2020]) and MR1^K43A ([Reantragoon et al., 2013]). First, we tested the MR1^R9H mutant ([Howson et al., 2020]) which represents a rare, natural human polymorph. […] When C1R. […] Next, we tested sought to understand how the previously characterised Lys43A mutation affects ligand binding. […] While this is in line with the ability of these ligands to bind MR1, the reason for MR1^K43A cell surface accumulation is less clear. The most likely explanation is that these ligands bind ER-resident MR1^K43A, in line with our data using wild-type MR1; however, because the K43A mutation results in spontaneous MR1 surface egress, the presence of these stabilising ligands promotes enhanced trafficking and/or retention at the cell surface. We cannot rule out however that the ligands may also bind directly to surface MR1^K43A and slow down the recycling from cell surface.
(§1) The level of MR1 expressed on the cell surface was measured after the exposure to the investigated ligands as previously described ([Awad et al., 2020a]; [Wang et al., 2022a]). C1R antigen presenting B lymphocytes overexpressing MR1*01 (C1R.MR1), MR1^K43A mutant (C1R.MR1^K43A), MR1^R9H mutant (C1R.MR1^R9H) or HLA-A*02:01 (C1R-A2), in addition to the monocytic THP-1-MR1 cells, were used in this study. 2 x 10^5 cells were incubated with RF catabolites for 3 or 16 h at 37° C and 5% CO2 in 200 μl folate-free RPMI 1640 medium from Gibco (Cat. No. 11875-093) fortified with 10% fetal bovine serum (FBS), sodium pyruvate (1 mmol/L), Hepes buffer (15 mmol/L), pH 7.2 to 7.5, 2% penicillin (100 U/ml), streptomycin ([…]), glutamax (2 mmol/L), nonessential amino acids (0.1 mmol/L) (all from ThermoFisher, Life Technologies), and 2-mercaptoethanol ([…], Sigma) (RF-10). After incubation, the cells were first stained with Zombie Aqua Fixable Viability Kit from BioLegend (Cat. No. 423102) and then incubated with biotinylated 8F2F9 αMR1 antibody for 30 minutes on ice. The unbound antibody was then washed off with 2% fetal bovine serum/PBS. The cells were finally incubated with PE-conjugated streptavidin (BioLegend, 30 μg/ml) and then washed with 2% fetal bovine serum/PBS. The PE fluorescence intensity reflects the surface MR1 level. The data was acquired with an LSRFortessa X-20 (BD Biosciences) and Diva software (BD Biosciences) and analyzed using FlowJo software (BD Biosciences).
Figure S2. Responses of different APCs to RF catabolites. […] C1R cells expressing (b) wild-type level of MR1*01, or overexpressing (c) HLA-A*02:01 or (d) MR1.K43A mutant were incubated for the indicated periods with titrated quantities of ligand followed by flow cytometry. The C1R and C1R.A2 cells were stained with biotinylated 8F2F9 and W6/32, respectively; followed by PE-labelled streptavidin. In all experiments, the MR1 and HLA-A*02:01 surface expression are depicted as a fold change from basal surface expression upon incubation with the vehicle (1 mM NaOH). Each column represents the average of at least three independent experiments performed in duplicate with standard error (SEM) represented by error bars. One-way ANOVA statistical analysis was performed for all samples followed by Dunnett multiple comparison test using NaOH as a control (ns; not significant, * p <0.05, **p < 0.01, ***p < 0.001, ****p < 0.0001).

C1R.MR1 cells [1] = assay: Competition with Ac-6-FP/5-OP-RU-induced MR1 upregulation, C1R.MR1; type: cell-based; conditions: for reduction of Ac-6-FP response: 200 μM (highest concentration), overnight, cell line not given
[2] = test system: SKW-3 cells expressing MBV28 (TRAV1-2/TRBV28) TCR; assay: MAIT cell activation assay, SKW-3 MBV28 TCR co-cultured with C1R.MR1; type: cell-based; conditions: for 5-OP-RU-induced activation (CD69): SKW-3 MBV28, in presence of 1 nM 5-OP-RU
Protocol: Next, we explored whether RF catabolites could activate SKW-3 cells expressing two different MAIT TCRs. Distinct responses of T cells expressing TCRs with varying TRBV chain usage reinforces the role of Vβ in modulating MAIT responses to various ligands ([Chancellor et al., 2023]; [Gherardin et al., 2016]; [Seneviratna et al., 2022]).The surface expression of CD69 was measured as a marker for activation of cells expressing the AF-7 (TRAV1-2/TRBV6-1) or MBV28 (TRAV1-2/TRBV28) TCRs after co-culture with C1R.MR1 cells and the ligands.
C1R.MR1 cells (1 x 10^5) were initially stained with CTV for 15 minutes and then incubated with RF catabolites for 20 h. […] Cells were subsequently stained with PE-Cy7-conjugated anti-CD69 (BD; 1:100) and PE-labelled anti-MR1 (26.5 clone; BD; 1:100), before analysis on LSRFortessa (BD Biosciences) flow cytometer. Activation of SKW-3-MAIT cells was reflected by the cell-surface CD69 expression.

soluble WT MR1 = assay: Fluorescence-based thermal shift assay of MR1-ligand complexes; type: binding, human; conditions: MR1 refolded with the ligand, Sypro Orange, three independent experiments
C1R.MR1 cells [3] = assay: Cell surface MR1 quantification by flow cytometry, C1R.MR1; type: cell-based; conditions: for MR1 cell surface expression: 1–200 μM
Protocol: Next, we investigated whether these RF catabolites can impact MR1 cell surface expression in both MR1-transduced B cell lymphoblastoid (C1R.MR1) and monocytic (THP-1.MR1) cell lines (Fig. 2). Here, the cells were pulsed with 1–200 μM of RF or the RF catabolites, and the cell surface levels of MR1 were quantified by flow cytometry ([Awad et al., 2020a]; [Keller et al., 2017]). Cell viability was unaffected, even at highest concentrations of the catabolites, as depicted in Fig. S2A. […] No impact on the MR1 surface level was observed when the parental C1R cells were incubated with these RF catabolites, probably due to the low basal surface MR1 level whose further reduction becomes undetectable by the anti-MR1 antibody (Fig. S2B). The MR1 downregulation seen in C1R.MR1 cells was specific to MR1 as the level of HLA-A*02:01 was not affected after pulsing C1R-A2 with the ligands (Fig. S2C). […] This MR1 downregulation varied between cell types, with a higher extent observed in THP-1.MR1 than C1R.MR1, and was seen after staining with both two conformational anti-MR1 8F2F9 and 26.5 antibodies (clones 8F2F9 and 26.5; Fig. 2G).
as §1

[4] = competition with 10 nM JYM20 for 100 nM empty hMR1, 37°C, read-out: IC50

IC50 (hMR1 protein; [4])	Compound	MR1^K43A at the cell surface (C1R.MR1^K43A cells; 3 h)	reduction of Ac-6-FP response (C1R.MR1 cells [1]; then 10 μM Ac-6-FP 3 h)	5-OP-RU-induced activation (CD69) [2]	Tm50 (half maximum melting temperature), Mean ± SD (soluble WT MR1; listed as MR1-alloxazine)	MR1 cell surface expression (C1R.MR1 cells [3]; C1R.MR1, 3 h)	IC50 (hMR1 protein; IC50, competition with 10 nM JYM20 for 100 nM empty hMR1, 37°C)	Tm50 (half maximum melting temperature), Mean ± SD (soluble WT MR1; listed as MR1-lumiflavin)	MR1^K43A at the cell surface (C1R.MR1^K43A cells; 16 h)	effect on Ac-6-FP-induced cell surface upregulation of MR1 (C1R.MR1 cells [1]; C1R.MR1, 1–200 μM overnight, then 10 μM Ac-6-FP 3 h)	effect on 5-OP-RU-induced cell surface upregulation of MR1 (C1R.MR1 cells [1]; C1R.MR1, 1–200 μM overnight, then 5-OP-RU 3 h)	MR1 cell surface expression (C1R.MR1 cells [3]; C1R.MR1, 16 h)	CD69 surface expression (activation) ([2]; SKW-3 MBV28, ligand alone)	MR1 expression on C1R.MR1 in co-culture ([2]; SKW-3 MBV28 co-culture with 5-OP-RU)	Tm50 (half maximum melting temperature), Mean ± SD (soluble WT MR1; listed as MR1-lumichrome)	rank as down-regulator of MR1 cell surface expression (C1R.MR1 cells [3]; overall, C1R.MR1 and THP-1.MR1)
13.4 µM	O=c1nc2[nH]c3ccccc3nc-2c(=O)[nH]1 [Alloxazine, alloxazine]	increased	more than 80%	could interfere with the 5-OP-RU-induced activation of MBV28 in a dose-dependent manner	49.9–52.0 °C	reduced MR1 cell surface										
	Cc1cc2nc3c(=O)[nH]c(=O)nc-3n(C)c2cc1C [Lumiflavin]	increased	more than 80%				22.8 µM	49.9–52.0 °C								
~182 µM and 182 µM	Cc1cc2nc3c(=O)[nH]c(=O)nc-3n(C[C@H](O)[C@H](O)[C@H](O)CO)c2cc1C [RF, Riboflavin]			could not compete with 5-OP-RU		did not alter MR1 expression from the baseline			MR1 upregulation continues	did not modulate	did not modulate	modestly upregulated MR1				
12.5 µM	Cc1cc2nc3[nH]c(=O)[nH]c(=O)c3nc2cc1C [Lumichrome, 7,8-dimethylalloxazine]	increased	more than 80%	enhanced the 5-OP-RU-induced CD69 expression		reduced MR1 cell surface			MR1 upregulation continues				minor reductions in CD69	dose-dependent reduction in MR1 expression	49.9–52.0 °C	most potent down-regulator
